Measured values from US20090018021A1, “Methyl jasmonate decreases fruit detachment force of grapes” (Regents of the University of California, priority 2006, published 2009).
Values joined by “and” are separate entries in the source; they are usually repeats but may differ in a detail not shown here. Equal entries are not always repeated.

What was measured:
[1] = test system: Thompson Seedless grapevines; test: Fruit detachment force (FDF), Thompson Seedless experiment; format: in vivo, grape; conditions: for FDF: ten days after treatment
Method: (§1) An experiment was conducted in a 40-year-old Thompson Seedless vineyard at the Kearney Agricultural Center in Parlier, California. The site was typical of conventional raisin vineyards, with head-trained, cane-pruned vines on a two-wire T-shaped trellis with a 0.6 m cross arm. The soil was a deep Hanford fine sandy loam.
(§2) The vineyard was divided into plots consisting of vine sections (within-row spaces between two adjacent vine trunks) of uniform appearance and crop load. Each plot was surrounded by guard vines within and between rows. Treatments consisted of 26 different solutions made up of various potential abscission agents (Table 1). Because the concentrations varied widely between agents, each solution was considered a different treatment, and a randomized complete block design was used. All treatments, except for coronatine, were replicated four times. Due to a lack of material, coronatine was only applied to two plots; therefore, data from that treatment were not subjected to statistical analysis though observations were made.
(§3) Composite berry samples were collected weekly to monitor soluble solids accumulation by the fruits. Samples consisted of about 100 berries collected from the top, middle and bottom of about 33 randomly selected clusters. Berries were homogenized in a blender, their juice filtered, and soluble solids measured with a temperature compensating digital refractometer (Palette 101, Atago, Farmingdale, N.Y.). Once the fruits amassed sufficient soluble solids for raisin making (>19 Brix), abscission agents were dissolved or dispersed in water with adjuvant added (0.1%, v/v, Latron B-1956™, Britz, Parlier, Calif.) except MeJA solutions which contained 0.2% adjuvant. Control solutions contained the adjuvant only (0.2% v/v). Immediately after their preparation, solutions were applied to the vines of each plot with a gasoline-powered back-pack sprayer (Solo, Newport News, R.I.) until runoff. Vines within harvest pruned (HP) plots were not treated with any solutions, but their canes were severed on the same day that solutions were applied.
(§4) The soil surface within each plot was covered with ground cloth to collect any berries that might fall from the canopy. […] In those plots and in the control and HP plots, all abscised berries were collected from the ground cloth into paper bags and placed in a forced air oven (60 C) until they reached a constant weight. Clusters of grapes on vines from all the plots were carefully harvested and brought into a laboratory where fruit detachment force (FDF) measurements were made. Any grapes that detached from the vines at harvest were considered to be retained by the vine until harvest. These berries were collected into paper bags and placed in a forced air oven to dry.
(§5) Three representative clusters were selected from all the clusters of each plot and ten rachis sections from the top, middle, and bottom of the three clusters were removed by cutting the rachis with shears. A berry from each section was placed in a jig attached to a force gauge (DPS-11, Imada Inc., Northbrook, Ill.). The rachis was pulled parallel to the fruit axis until it separated from the fruit. The force required to detach each berry from the rachis in grams-force was recorded as the fruit detachment force. The condition of each detached berry was noted, and the berries were placed in paper bags along with all the other berries that were picked from that plot. These berries were also placed in the forced air oven and dried to a constant weight. The proportion of berries that abscised from the vine was calculated on a dry weight basis by dividing the dry weight of the abscised berries in each plot by the combined weight of the retained and abscised berries in that plot. Finally, canopy damage in each plot was inspected visually and assigned a rating of 0 (no obvious foliar damage), 1 (appearance of slight foliar damage), 2 (appearance of moderate foliar damage), or 3 (appearance of severe foliar damage).

[2] = test system: Thompson Seedless grapevines; test: Visual canopy damage rating, Thompson Seedless experiment; format: in vivo, grape; conditions: ten days after treatment
Description: as §2
Composite berry samples were collected weekly to monitor soluble solids accumulation by the fruits. Samples consisted of about 100 berries collected from the top, middle and bottom of about 33 randomly selected clusters. […] Control solutions contained the adjuvant only (0.2% v/v). Immediately after their preparation, solutions were applied to the vines of each plot with a gasoline-powered back-pack sprayer (Solo, Newport News, R.I.) until runoff. Vines within harvest pruned (HP) plots were not treated with any solutions, but their canes were severed on the same day that solutions were applied.
as §5

[3] = test system: Thompson Seedless grapevines; test: Fruit drop (berry abscission) from treated vines, Thompson Seedless experiment; format: in vivo, grape; conditions: for Berry abscission observed in plots: ten days after treatment, all 26 solutions compared; for Percent fruit drop (dry wt/dry wt): 10 days after treatment
Method: as §1, §2, §3, §4, §5

citrus trees = conditions: cited from earlier work
[4] = test system: Thompson Seedless grapevines; test: Bud break and shoot growth six months after treatment, Thompson Seedless experiment; format: in vivo, grape; conditions: 2000 ppm, evaluated six months later
Method: Each plot was inspected again six months later when bud break and shoot growth were evaluated. To evaluate bud break, plots received one of the following scores; 0=shoots emerged from 0-20% of nodes; 1=shoots emerged from 20-40% of nodes, 2=shoots emerged from 40-60% of nodes, 3=shoots emerged from 60-80% of nodes, or 4=shoots emerged from 80-100% of nodes. Shoot growth in each plot was also evaluated on a five-point scale, based on the proportion of shoots that had progressed to the five-leaf stage (Eichorn-Lorenz stage 12; Eichorn and Lorenz, Phaenologische Entwicklungsstadien der Rebe. Nachrichtenbl. Deut. Pflanzenschutzd. (Braunschweig) 29:119-120 (1977)).

Crimson Seedless grapes = test: Abscission and fruit detachment force, Crimson Seedless experiment; format: in vivo, grape
Method: An experiment was conducted in a fourteen-year-old vineyard of own-rooted Crimson Seedless grapes on an open-gable trellis. Individual clusters of grapes were sprayed to runoff with one of four solutions containing 0, 1125, 2250, or 4500 ppm MeJA and an adjuvant (0.2% v/v, Latron-B 1956). On Day 0, treatments were applied in a randomized, complete block design with clusters as observational units, and vines as blocks. Each spray treatment was applied to 4 replicate clusters. During treatment, clusters were surrounded with plastic shields to protect other clusters from overspray and runoff. The day after treatment, each cluster was enclosed in a plastic mesh bag to collect any berries that might abscise. Clusters were harvested 14 DAT. Ten rachis sections were collected from each cluster and FDF was measured as described previously. The condition of the detached berries was noted, and the berries from each cluster were then separately weighed and homogenized in a blender. Juices were filtered and soluble solids, pH, and titratable acidity of the filtered juices were determined using standard methods.
All data were subjected to analysis of variance using the general linear models procedure (PROC GLM) of SAS statistical software (SAS Inst., Cary, N.C.). Duncan's New Multiple Range Test was used to separate treatment means. […]

Merlot grapevines = test: Fruit detachment force and fruit drop, Merlot; format: in vivo, grape; conditions: 4500 ppm, 14 DAT
Method: (§6) An experiment was conducted in a nine-year-old vineyard of own-rooted Cabernet Sauvignon and Merlot grapevines on a vertical two-wire […]. Whole vines were sprayed to runoff on Day 0 with solutions containing 0 or 4500 ppm MeJA and an adjuvant (Latron B-1956; 0.2% v/v) in a completely randomized design replicated four times. On 14 DAT, four representative clusters were collected from each of four vines and ten rachis sections were prepared from each cluster. Fruit detachment force was measured from berries attached to each section, as described previously. Condition of the detached berries was noted, and all the berries from each cluster were counted, weighed, and homogenized in a blender. The juice from each sample was filtered and soluble solids, pH, and titratable acidity of the filtered juices were determined using standard methods. All data were subjected to analysis of variance using the general linear models procedure (PROC GLM) of SAS statistical software (SAS Inst., Cary, N.C.). Duncan's New Multiple Range Test was used to separate treatment means.

[5] = test system: Cabernet Sauvignon grapevines; test: Fruit detachment force and fruit drop, Cabernet Sauvignon; format: in vivo, grape; conditions: 4500 ppm, 14 DAT
Method: as §6

SMILES: Cc1n[nH]c(Cl)c1[N+](=O)[O-] [CMNP, 5-chloro-3-methyl-4-nitro-1H-pyrazole]
- FDF ([1]; 20 ppm): 0.244 cd kg
- FDF ([1]; 200 ppm): 0.156 fg·kg
- FDF ([1]; 1000 ppm): 0.161 fg·kg
- FDF ([1]; 2000 ppm): 0.182 ef kg
- Canopy damage (0-3; none-severe) ([2]; 20 ppm): 1.25 cde
- Canopy damage (0-3; none-severe) ([2]; 200 ppm): 1.25 bcd
- Canopy damage (0-3; none-severe) ([2]; 1000 ppm): 1.75 bc
- Canopy damage (0-3; none-severe) ([2]; 2000 ppm): 2.75 a

SMILES: CC[C@H]1C=C(C(=O)N[C@@]2(C(=O)O)C[C@@H]2CC)[C@H]2CCC(=O)[C@H]2C1 [Coronatine]
- Fruit drop (observation, not statistically analysed) ([3]; 200 ppm, two plots only, 10 DAT): fruit drop appeared similar to that of vines treated with 2250 ppm MeJA
- Berry abscission observed in plots [3]: berry abscission was only observed in plots treated with MeJA or coronatine
- Defoliation expected (citrus trees; citrus (Burns et al., 2003)): chlorosis. Expect ~10% defoliation.

SMILES: CC1(C)OC[C@@H]2O[C@@]3(C(=O)O)OC(C)(C)O[C@H]3[C@@H]2O1 [Dikegulac]
- Appearance of shoots [4]: cupped leaves and short internodes
- FDF ([1]; 20 ppm): 0.291 abc kg
- FDF ([1]; 200 ppm): 0.27 ab kg
- FDF ([1]; 1000 ppm): 0.288 ab kg
- FDF ([1]; 2000 ppm): 0.176 efg kg
- Canopy damage (0-3; none-severe) ([2]; 20 ppm): 1.00 cd
- Canopy damage (0-3; none-severe) ([2]; 200 ppm): 1.25 bcd
- Canopy damage (0-3; none-severe) ([2]; 1000 ppm): 0.5
- Canopy damage (0-3; none-severe) ([2]; 2000 ppm): 1.50 bcd
- Leaf loss expected (citrus trees; citrus, at certain times of the season (Pozo et al, 2004)): (Pozo et al, 2004). Expect 15-20%

SMILES: CC/C=C\CC1C(=O)CCC1CC(=O)OC (stereo not drawn) [MeJA, methyl jasmonate]
- FDF of berries retained after harvest versus concentration applied (Crimson Seedless grapes; 14 DAT, 0-4500 ppm): FDF decreased as a linear function of the concentration of MeJA applied
- Abscission of grapes from clusters (Crimson Seedless grapes; within 14 DAT, clusters sprayed with 1125, 2250 or 4500 ppm): did not abscise from any clusters
- Percent fruit drop (dry wt/dry wt) ([3]; 45 ppm): 0.26 c percent
- Percent fruit drop (dry wt/dry wt) ([3]; 450 ppm): 6.37 c percent
- Percent fruit drop (dry wt/dry wt) ([3]; 4500 ppm): 50% and 50.71 a percent
- Berry abscission observed in plots [3]: berry abscission was only observed in plots treated with MeJA or coronatine
- Abscised berries observed ([3]; within 2 days after treatment, ≧450 ppm (2 mM)): abscised berries were observed
- FDF ([1]; 45 ppm): 0.169 fg·kg
- FDF ([1]; 450 ppm): 0.124 gh kg
- FDF ([1]; 2250 ppm): 0.079 hi kg
- FDF ([1]; 4500 ppm): 0.052 i kg
- Reduction of FDF compared with cane severance ([1]; any concentration ≧450 ppm, 10 DAT): reduced FDF at least as effectively as cane severance
- Reduction of FDF compared to non-treated vines ([1]; lowest concentration tested, 10 DAT): reduced FDF by half
- Fruit on treated trees dropped (citrus trees; citrus trees, 2250-4500 ppm, within 10 DAT (Hartmond et al. 2000)): about 20%
- FDF less than fruit from non-treated trees (citrus trees; citrus trees, solutions of 2250-4500 ppm (Hartmond et al. 2000)): 75-80%
- Fruit drop (appeared, not measured) (Merlot grapevines): less than 10%
- Reduction of FDF compared to non-treated vines (Merlot grapevines): 75%
- Fruit drop (appeared, not measured) [5]: less than 10%
- Reduction of FDF compared to non-treated vines [5]: 66%

SMILES: NC1(C(=O)O)CC1 [VBC-30069]
- FDF ([1]; 50 ppm): 0.261 cd kg
- FDF ([1]; 150 ppm): 0.266 abcd kg
